Reference: the RepoRT retention time repository (doi:10.1021/acs.analchem.1c00972)

How the values were obtained:
[1] = RP, Waters ACQUITY UPLC BEH C18, 100 × 1 mm, 1.7 µm, 50 °C, 0.3 mL/min, estimated dead time 0.17 min; A: water + 10 mM ammonium bicarbonate; B: 10% water + 90% methanol + 10 mM ammonium bicarbonate; gradient (min/%B) 0/0 15/100 21/100 22/0 30/0; conditions: stereoisomer not certain
[2] = RP, Waters ACQUITY UPLC BEH C18, 100 × 1 mm, 1.7 µm, 50 °C, 0.3 mL/min, estimated dead time 0.17 min; A: water + 0.1% formic acid + 20 mM ammonium formate; B: methanol + 0.1% formic acid + 20 mM ammonium formate; gradient (min/%B) 0/0 15/100 21/100 22/0 30/0; conditions: stereoisomer not certain

| LC retention time [1] | LC retention time [2] | Structure (SMILES) |
| --- | --- | --- |
| 12.2 min | 11.7 min | CCOC(=O)C(CCc1ccccc1)NC(C)C(=O)N1CCCC1C(=O)O (configuration not stated) [Enalapril] |
| 14 min | 9.4 min | COC(=O)CC(O)(CCCC(C)(C)O)C(=O)OC1C(OC)=CC23CCCN2CCc2cc4c(cc2C13)OCO4 (configuration not stated) [Homoharringtonine] |
| 13.9 min | 17.2 min | c1ccc2sc(SSc3nc4ccccc4s3)nc2c1 [2,2-Dibenzothiazoyl disulfide] |
| 14.7 min | 14.4 min | CCN(CC)c1ccc2c(C)cc(=O)oc2c1 [7-Diethylamino-4-methylcoumarin] |
| 7.67 min | 8.34 min | O=C(O)c1cn(C2CC2)c2cc(N3CCNCC3)c(F)cc2c1=O [Ciprofloxacin] |
| 7.16 min | 5.17 min | CC(C)C(N)C(=O)OCC(CO)OCn1cnc2c(=O)[nH]c(N)nc21 (configuration not stated) [Valganciclovir] |
| 12.4 min | 11.6 min | Cc1cccc(Nc2ccncc2S(=O)(=O)NC(=O)NC(C)C)c1 [Torasemide] |
| 8.01 min | 7.61 min | Cc1cc(=O)[nH]c(C(C)C)n1 [2-Isopropyl-6-methyl-pyrimidin-4-ol] |
| 9.6 min | 8.04 min | CC1COc2c(N3CCN(C)CC3)c(F)cc3c(=O)c(C(=O)O)cn1c23 (configuration not stated) [Ofloxacin] |
| 15.8 min | 14.1 min | c1ccc2sc(NC3CCCCC3)nc2c1 [N-cyclohexyl-2-benzothiazole-amine] |
| 13.8 min | 11.1 min | CC(C)NCC(O)COc1ccc(COCCOC(C)C)cc1 (configuration not stated) [Bisoprolol] |
| 12.6 min | 14.4 min | COC(=O)c1ccccc1S(=O)(=O)NC(=O)Nc1nc(OC(F)F)cc(OC(F)F)n1 [Primisufuron-methyl] |
| 17.1 min | 16.7 min | CCCCCCCCCCCC(=O)NCC(C)O (configuration not stated) [Lauric isopropanolamide] |
| 5.61 min | 12.3 min | NCC(O)COc1ccc(CC(N)=O)cc1 (configuration not stated) [Atenolol-desisopropyl] |
| 13.9 min | 14.9 min | COc1ccc(Cl)cc1C(=O)NCCc1ccc(S(=O)(=O)NC(=O)NC2CCCCC2)cc1 [Glibenclamide] |
| 6.19 min | 8.86 min | COc1ncnc(NS(=O)(=O)c2ccc(N)cc2)c1OC [Sulfadoxine] |
| 14.6 min | 14.4 min | CC(C)(C)C(O)C(Cc1ccc(Cl)cc1)n1cncn1 (configuration not stated) [Paclubutrazole] |
| 18.5 min | 18.1 min | CCCCOC(=O)CCCCCCCCC(=O)OCCCC [Dibutyl sebacate] |
| 14.9 min | 14.6 min | CC(C)(C)NC(=O)C1CCC2C3CCC4NC(=O)C=CC4(C)C3CCC12C (configuration not stated) [Finasteride] |
| 11 min | 10.9 min | NC(=O)N1c2ccccc2C2OC2c2ccccc21 (configuration not stated) [Carbamazepine-10,11-epoxide] |

| Structure (SMILES) | LC retention time [1] | LC retention time [2] |
| --- | --- | --- |
| O=C(OC1CCCCC1)c1ccccc1C(=O)OC1CCCCC1 [Dicyclohexylphthalat] | 12.5 min | 14.2 min |
| CCCCCCCCCCOC(=O)c1ccccc1C(=O)OCCCCCCCCCC [Didecylphthalat] | 21.4 min | 20.1 min |
| CN(C)c1nc(=O)n(C2CCCCC2)c(=O)n1C [Hexazinone] | 11.9 min | 11.7 min |
| CN1CCC23c4c5ccc(O)c4OC2C(O)C=CC3C1C5 (configuration not stated) [Morphine] | 10.4 min | 4.19 min |
| CCOc1cc(C(C)(C)C)ccc1C1COC(c2c(F)cccc2F)=N1 (configuration not stated) [Etoxazole] | 17.8 min | 17.4 min |
| CC1=C2C(=O)C3C(CC=C4CC(O)CCC43C)C2CCC12OC1CC(C)CNC1C2C (configuration not stated) [Jervine] | 15.2 min | 11.7 min |
